± gives the standard deviation of the averaged measurements.
Experiments:
Assay in all cases: level (log10 ratio to DMSO vehicle control); higher = higher biomarker level / cell amount than vehicle control
Nonafluoropentanamide = compound: NC(=O)C(F)(F)C(F)(F)C(F)(F)C(F)(F)F [Nonafluoropentanamide]; details: in DMSO
Procedure: (§1)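 BioMAP Diversity Plus panel of 12 human primary cell co-culture systems (3C, 4H, LPS, SAg, BT, BF4T, BE3C, CASM3C, HDF3CGF, KF3CT, MyoF, Mphg). Compounds were added 1 h before stimulation and left for 24 h (MyoF 48 h; BT 72 h for soluble read-outs or 6 d for IgG). Biomarkers were read by ELISA, cytotoxicity by SRB, PBMC viability and proliferation by Alamar Blue. Each well value was divided by the mean of 8 DMSO control wells on the same plate and log10 transformed; duplicate blinded samples were tested at 4 concentrations.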

[1] = compound: NS(=O)(=O)C(F)(F)C(F)(F)C(F)(F)C(F)(F)C(F)(F)C(F)(F)F [Perfluorohexanesulfonamide]; details: in DMSO
Procedure: as §1

[2] = compound: O=S(=O)(F)C(F)(F)C(F)(F)C(F)(F)C(F)(F)C(F)(F)C(F)(F)C(F)(F)C(F)(F)F [Perfluorooctanesulfonyl fluoride]; details: in DMSO
Procedure: as §1

[3] = compound: O=C(O)C=CC(F)(C(F)(F)F)C(F)(F)F [3-(Perfluoroisopropyl)-2-propenoic acid]; details: in DMSO
Procedure: as §1

[4] = compound: NC(=O)C(F)(F)C(F)(F)C(F)(F)C(F)F; details: in DMSO
Procedure: as §1

[5] = compound: O=S(=O)(O)C(F)(F)C(F)(F)C(F)(F)C(F)(F)C(F)(F)C(F)(F)C(F)(F)C(F)(F)C(F)(F)C(F)(F)F [Sodium perfluorodecanesulfonate]; details: in DMSO
Procedure: as §1

Hexafluoroamylene glycol = compound: OCC(F)(F)C(F)(F)C(F)(F)CO [Hexafluoroamylene glycol]; details: in DMSO
Procedure: as §1

[6] = compound: FC(F)(F)C(F)(F)C(F)(F)C(F)(F)C(F)(F)C(F)(F)C(F)(F)I [1-Iodopentadecafluoroheptane]; details: in DMSO
Procedure: as §1

[7] = compound: O=C(O)C(F)(F)C(F)(F)C(F)(F)C(F)(F)C(F)(F)C(F)(F)C(F)(F)C(F)(F)C(F)(F)C(F)F [11-H-Perfluoroundecanoic acid]; details: in DMSO
Procedure: as §1

[8] = compound: FC(F)(F)C(F)(F)C(F)(F)CC1CO1 [1H,1H-Heptafluorobutyl epoxide]; details: in DMSO
Procedure: as §1

[9] = compound: COC(=O)C(F)(F)C(F)(F)OC(F)(C(F)(F)F)C(F)(F)OC(F)=C(F)F [Methyl perfluoro(3-(1-ethenyloxypropan-2-yloxy)propanoate)]; details: in DMSO
Procedure: as §1

[10] = compound: O=S(=O)(O)CCC(F)(F)C(F)(F)C(F)(F)C(F)(F)C(F)(F)C(F)(F)F [6:2 Fluorotelomer sulfonic acid]; details: in DMSO
Procedure: as §1

[11] = compound: FC(F)(F)C(F)(F)C(F)(F)C(F)(F)C(F)(F)C(F)(F)CC1CO1 [3-(Perfluorohexyl)-1,2-epoxypropane]; details: in DMSO
Procedure: as §1

[12] = compound: O=S(=O)(Cl)C(F)(F)C(F)(F)C(F)(F)C(F)(F)C(F)(F)C(F)(F)C(F)(F)C(F)(F)F [Perfluoro-1-octanesulfonyl chloride]; details: in DMSO
Procedure: as §1

[13] = compound: C=C(C)C(=O)OCCC(F)(F)C(F)(F)C(F)(F)C(F)(F)C(F)(F)C(F)(F)F [6:2 Fluorotelomer methacrylate]; details: in DMSO
Procedure: as §1

Heptafluorobutyl iodide = compound: FC(F)(F)C(F)(F)C(F)(F)CI [Heptafluorobutyl iodide]; details: in DMSO
Procedure: as §1

[14] = compound: C=CC(=O)OCC(F)(F)C(F)(F)C(F)(F)COC(=O)C=C [1H,1H,5H,5H-Perfluoro-1,5-pentanediol diacrylate]; details: 6700 nM; in DMSO
Procedure: as §1

Octafluoroadipamide = compound: NC(=O)C(F)(F)C(F)(F)C(F)(F)C(F)(F)C(N)=O [Octafluoroadipamide]; details: in DMSO
Procedure: as §1

[15] = compound: FC(F)(F)C(F)(F)CNCC(F)(F)C(F)(F)F [Bis(1H,1H-perfluoropropyl)amine]; details: in DMSO
Procedure: as §1

HDF3CGF:CXCL11/I-TAC
level (log10) (Nonafluoropentanamide; 6700 nM): -0.0095 ± 0.021 | level (log10) (Nonafluoropentanamide; 20000 nM): 0.009 ± 0.024 | level (log10) (Nonafluoropentanamide; 60000 nM): -0.0155 ± 0.011 | level (log10) ([1]; 6700 nM): 0.0075 ± 0.018 | level (log10) ([1]; 20000 nM): -0.028 ± 0.011 | level (log10) ([1]; 60000 nM): -0.189 ± 0.033 | level (log10) ([2]; 6700 nM): -0.0035 ± 0.0021 | level (log10) ([2]; 20000 nM): -0.012 ± 0.0028 | level (log10) ([2]; 60000 nM): -0.0155 ± 0.0021 | level (log10) ([3]; 6700 nM): -0.004 ± 0.0014 | level (log10) ([3]; 20000 nM): 0.015 ± 0.025 | level (log10) ([3]; 60000 nM): 0.002 ± 0.021 | level (log10) ([4]; 6700 nM): -0.0035 ± 0.016 | level (log10) ([4]; 20000 nM): -0.002 ± 0.013 | level (log10) ([4]; 60000 nM): -0.002 ± 0.027 | level (log10) ([5]; 1500 nM): -0.0205 ± 0.029 | level (log10) ([5]; 4400 nM): -0.0225 ± 0.0092 | level (log10) ([5]; 13000 nM): 0.0785 ± 0.013 | level (log10) ([5]; 40000 nM): 0.092 ± 0.0042 | level (log10) (Hexafluoroamylene glycol; 6700 nM): 0.001 ± 0.04 | level (log10) (Hexafluoroamylene glycol; 20000 nM): -0.015 ± 0.088 | level (log10) (Hexafluoroamylene glycol; 60000 nM): -0.044 ± 0.1 | level (log10) ([6]; 6700 nM): -0.019 ± 0.0057 | level (log10) ([6]; 20000 nM): -0.0405 ± 0.0092 | level (log10) ([7]; 6700 nM): -0.127 ± 0.023 | level (log10) ([7]; 20000 nM): -0.2405 ± 0.0021 | level (log10) ([8]; 6700 nM): -0.0165 ± 0.063 | level (log10) ([8]; 20000 nM): -0.016 ± 0.093 | level (log10) ([8]; 60000 nM): -0.0255 ± 0.11 | level (log10) ([9]; 6700 nM): -0.0285 ± 0.018 | level (log10) ([9]; 20000 nM): -0.272 ± 0.0078 | level (log10) ([10]; 6700 nM): -0.0445 ± 0.1 | level (log10) ([10]; 20000 nM): -0.0605 ± 0.088 | level (log10) ([10]; 60000 nM): -0.0885 ± 0.091 | level (log10) ([11]; 6700 nM): 0.01 ± 0.016 | level (log10) ([11]; 20000 nM): 0.015 ± 0.0028 | level (log10) ([11]; 60000 nM): -0.003 ± 0.027 | level (log10) ([12]; 6700 nM): -0.038 ± 0.0028 | level (log10) ([12]; 20000 nM): -0.0315 ± 0.018 | level (log10) ([12]; 60000 nM): -0.0145 ± 0.022 | level (log10) ([13]; 6700 nM): -0.022 ± 0.021 | level (log10) ([13]; 20000 nM): -0.014 ± 0.0014 | level (log10) ([13]; 60000 nM): -0.018 ± 0.013 | level (log10) (Heptafluorobutyl iodide; 6700 nM): -0.0515 ± 0.019 | level (log10) (Heptafluorobutyl iodide; 20000 nM): -0.069 ± 0.076 | level (log10) (Heptafluorobutyl iodide; 60000 nM): -0.091 ± 0.045 | level (log10) [14]: -0.41 ± 0.045 | level (log10) (Octafluoroadipamide; 6700 nM): -0.0025 ± 0.011 | level (log10) (Octafluoroadipamide; 20000 nM): 0 ± 0.023 | level (log10) (Octafluoroadipamide; 60000 nM): 0.018 ± 0.0014 | level (log10) ([15]; 6700 nM): -0.0065 ± 0.0092 | level (log10) ([15]; 20000 nM): -0.0045 ± 0.013 | level (log10) ([15]; 60000 nM): 0.0195 ± 0.035

KF3CT:MMP-9
level (log10) (Nonafluoropentanamide; 6700 nM): -0.039 ± 0.027 | level (log10) (Nonafluoropentanamide; 20000 nM): -0.0195 ± 0.0021 | level (log10) (Nonafluoropentanamide; 60000 nM): -0.0245 ± 0.011 | level (log10) ([1]; 6700 nM): -0.015 ± 0.02 | level (log10) ([1]; 20000 nM): -0.039 ± 0.03 | level (log10) ([1]; 60000 nM): -0.093 ± 0.021 | level (log10) ([2]; 6700 nM): -0.012 ± 0.035 | level (log10) ([2]; 20000 nM): -0.0185 ± 0.032 | level (log10) ([2]; 60000 nM): -0.0075 ± 0.035 | level (log10) ([3]; 6700 nM): -0.0175 ± 0.016 | level (log10) ([3]; 20000 nM): 0.006 ± 0.0071 | level (log10) ([3]; 60000 nM): 0.018 ± 0.014 | level (log10) ([4]; 6700 nM): -0.0095 ± 0.013 | level (log10) ([4]; 20000 nM): 0.002 ± 0.025 | level (log10) ([4]; 60000 nM): 0.0125 ± 0.023 | level (log10) ([5]; 1500 nM): -0.01 ± 0.0085 | level (log10) ([5]; 4400 nM): -0.0325 ± 0.0078 | level (log10) ([5]; 13000 nM): -0.0735 ± 0.012 | level (log10) ([5]; 40000 nM): -0.139 ± 0.036 | level (log10) (Hexafluoroamylene glycol; 6700 nM): -0.0145 ± 0.005 | level (log10) (Hexafluoroamylene glycol; 20000 nM): -0.011 ± 0.025 | level (log10) (Hexafluoroamylene glycol; 60000 nM): -0.0155 ± 0.0035 | level (log10) ([6]; 6700 nM): -0.05 ± 0.11 | level (log10) ([6]; 20000 nM): -0.0495 ± 0.056 | level (log10) ([7]; 6700 nM): -0.0735 ± 0.011 | level (log10) ([7]; 20000 nM): -0.298 ± 0.0071 | level (log10) ([8]; 6700 nM): -0.0085 ± 0.028 | level (log10) ([8]; 20000 nM): -0.012 ± 0.0099 | level (log10) ([8]; 60000 nM): -0.0205 ± 0.013 | level (log10) ([9]; 6700 nM): -0.0375 ± 0.0021 | level (log10) ([9]; 20000 nM): -0.054 ± 0.0071 | level (log10) ([10]; 6700 nM): -0.0285 ± 0.019 | level (log10) ([10]; 20000 nM): 0.0085 ± 0.018 | level (log10) ([10]; 60000 nM): 0.026 ± 0.0028 | level (log10) ([11]; 6700 nM): -0.014 ± 0.0042 | level (log10) ([11]; 20000 nM): -0.0225 ± 0.00071 | level (log10) ([11]; 60000 nM): -0.0155 ± 0.025 | level (log10) ([12]; 6700 nM): -0.0225 ± 0.028 | level (log10) ([12]; 20000 nM): -0.0155 ± 0.013 | level (log10) ([12]; 60000 nM): -0.193 ± 0.026 | level (log10) ([13]; 6700 nM): -0.0275 ± 0.056 | level (log10) ([13]; 20000 nM): -0.0145 ± 0.03 | level (log10) ([13]; 60000 nM): -0.009 ± 0.0042 | level (log10) (Heptafluorobutyl iodide; 6700 nM): -0.0195 ± 0.035 | level (log10) (Heptafluorobutyl iodide; 20000 nM): -0.0185 ± 0.033 | level (log10) (Heptafluorobutyl iodide; 60000 nM): -0.005 ± 0.021 | level (log10) [14]: -0.0525 ± 0.043 | level (log10) (Octafluoroadipamide; 6700 nM): -0.0325 ± 0.016 | level (log10) (Octafluoroadipamide; 20000 nM): -0.023 ± 0.0014 | level (log10) (Octafluoroadipamide; 60000 nM): -0.0115 ± 0.03 | level (log10) ([15]; 6700 nM): -0.024 ± 0.0071 | level (log10) ([15]; 20000 nM): -0.013 ± 0.035 | level (log10) ([15]; 60000 nM): 0.001 ± 0.042

Source: the supplement of paper PMC10331698
